Measured values: US20220062240A1, “METHODS OF TREATING CANCER USING A CLK INHIBITOR” (BioSplice Therapeutics, Inc., priority 2018, published 2022)
pEC50: −log10 of the molar value. Where two headings read alike, the source gives them in different places.

What was measured:
DU4475 = test: CellTiter-Glo Viability Assay, breast cancer; assay type: cell-based; conditions: Homo sapiens, DU-4475, 96 h; DU4475, breast cancer, four days; read-out: EC50
HCC1599 = test: CellTiter-Glo Viability Assay, breast cancer; assay type: cell-based; conditions: Homo sapiens, 96 h; HCC1599, breast cancer, four days; read-out: EC50
CAMA1 = test: CellTiter-Glo Viability Assay, breast cancer; assay type: cell-based; conditions: Homo sapiens, CAMA-1, 96 h; CAMA1, breast cancer, four days; read-out: EC50
ZR-75-1 = test: CellTiter-Glo Viability Assay, breast cancer; assay type: cell-based; conditions: Homo sapiens, 96 h; ZR-75-1, breast cancer, four days; read-out: EC50
MDA-MB-231-Luc = test: CellTiter-Glo Viability Assay, breast cancer; assay type: cell-based; conditions: Homo sapiens, 96 h; MDA-MB-231-Luc, breast cancer, four days; read-out: EC50
MCF7 = test: CellTiter-Glo Viability Assay, breast cancer; assay type: cell-based; conditions: Homo sapiens, 96 h; MCF7, breast cancer, four days; read-out: EC50
BT-549 = test: CellTiter-Glo Viability Assay, breast cancer; assay type: cell-based; conditions: Homo sapiens, 96 h; BT-549, breast cancer, four days; read-out: EC50
T47D = test: CellTiter-Glo Viability Assay, breast cancer; assay type: cell-based; conditions: Homo sapiens, 96 h, breast cancer, four days, read-out: EC50
[1] = test system: lung cancer (4 cell lines); test: CellTiter-Glo Viability Assay, lung cancer; assay type: cell-based; conditions: Homo sapiens, inhibition of cancer cell proliferation
all 50 cell lines = test: CellTiter-Glo Viability Assay, average across all cell lines; assay type: cell-based; conditions: Homo sapiens; across all 50 cell lines; read-out: average EC50 for inhibition of cancer cell proliferation
How it was run: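 Proliferation of a multi-tissue human cancer line panel is assessed over four days at 37° C and 5% CO2, seeding 300-3,000 cells/well. Viability is quantified by CellTiter-Glo luminescence, and EC50 values are calculated.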

[2] = test system: ovarian cancer (4 cell lines); test: CellTiter-Glo Viability Assay, ovarian cancer; assay type: cell-based; conditions: Homo sapiens, inhibition of cancer cell proliferation
[3] = test system: pancreatic cancer (8 cell lines); test: CellTiter-Glo Viability Assay, pancreatic cancer; assay type: cell-based; conditions: Homo sapiens, inhibition of cancer cell proliferation
[4] = test system: haematopoietic & lymphoid tumors (13 cell lines); test: CellTiter-Glo Viability Assay, haematopoietic & lymphoid tumors; assay type: cell-based; conditions: Homo sapiens, inhibition of cancer cell proliferation
[5] = test system: liver cancer (3 cell lines); test: CellTiter-Glo Viability Assay, liver cancer; assay type: cell-based; conditions: Homo sapiens, inhibition of cancer cell proliferation
[6] = test system: prostate cancer (5 cell lines); test: CellTiter-Glo Viability Assay, prostate cancer; assay type: cell-based; conditions: Homo sapiens
[7] = test system: colorectal cancer (6 cell lines); test: CellTiter-Glo Viability Assay, colorectal cancer; assay type: cell-based; conditions: Homo sapiens, inhibition of cancer cell proliferation
CLK2 = target: T1, CLK2 (Homo sapiens, UniProt P49760); test: CLK2 kinase activity assay (Z-lyte, Ser/Thr 6 peptide); assay type: biochemical; conditions: recombinant CLK2 kinase, ATP 60 μM; read-out: EC50
T1 construct: purchased Thermo Fisher (Life Technologies), Z'-LYTE Kinase Assay Kits
T1 sequence (P49760 whole entry): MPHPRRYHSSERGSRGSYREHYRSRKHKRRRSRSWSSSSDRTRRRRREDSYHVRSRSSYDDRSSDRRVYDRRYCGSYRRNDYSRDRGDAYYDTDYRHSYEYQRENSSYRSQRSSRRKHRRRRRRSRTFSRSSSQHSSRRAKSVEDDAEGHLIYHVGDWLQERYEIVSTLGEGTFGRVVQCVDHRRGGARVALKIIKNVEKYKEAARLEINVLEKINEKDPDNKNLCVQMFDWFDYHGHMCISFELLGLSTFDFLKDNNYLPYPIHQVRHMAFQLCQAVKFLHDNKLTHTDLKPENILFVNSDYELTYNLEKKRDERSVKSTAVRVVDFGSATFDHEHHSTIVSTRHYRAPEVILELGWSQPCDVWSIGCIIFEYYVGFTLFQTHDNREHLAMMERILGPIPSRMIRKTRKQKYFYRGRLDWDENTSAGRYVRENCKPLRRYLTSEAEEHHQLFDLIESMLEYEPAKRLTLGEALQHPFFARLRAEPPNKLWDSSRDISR
Procedure: All reactions were performed in duplicate.

CN1CCN(c2cc(C(=O)Nc3cc4cc(-c5cnn(C)c5)c(F)cc4cn3)ccn2)CC1 [Compound 69]
pEC50 (DU4475): 6.43 | pEC50 (HCC1599): 6.19 | pEC50 (CAMA1): 5.91 | pEC50 (ZR-75-1): 6.39 | pEC50 (MDA-MB-231-Luc): 6.51 | pEC50 (MCF7): 5.48 | pEC50 (BT-549): 6.14 | pEC50 (T47D): 5.89 | EC50 ([1]; A-427, A427 cell line, read-out: Lung cancer, EC50 (μM) A427): 0.756 µM | EC50 ([1]; HCC78, HCC-78 cell line, read-out: Lung cancer, EC50 (μM) HCC-78): 0.666 µM | EC50 ([1]; NCI-H460 cell line, read-out: Lung cancer, EC50 (μM) NCI-H460): 0.922 µM | EC50 ([1]; NCI-H522 cell line, read-out: Lung cancer, EC50 (μM) NCI-H522): 0.43 µM | pEC50 (all 50 cell lines): 6.20 | EC50 ([2]; PA-1, PA1 cell line, read-out: Ovarian cancer, EC50 (μM) PA1): 0.195 µM | EC50 ([2]; TOV112D, TOV-112D cell line, read-out: Ovarian cancer, EC50 (μM) TOV-112D): 0.233 µM | EC50 ([2]; OV-90 cell line, read-out: Ovarian cancer, EC50 (μM) OV-90): 0.901 µM | EC50 ([2]; OVCAR-3 cell line, read-out: Ovarian cancer, EC50 (μM) OVCAR-3): 0.406 µM | pEC50 ([3]; BXPC-3, BxPC3 cell line, read-out: Pancreatic cancer, EC50 BxPC3): 6.04 | pEC50 ([3]; CAPAN-1, Capan1 cell line, read-out: Pancreatic cancer, EC50 Capan1): 5.99 | pEC50 ([3]; Capan-2, Capan2 cell line, read-out: Pancreatic cancer, EC50 Capan2): 5.85 | pEC50 ([3]; MIA PaCa-2 cell line, read-out: Pancreatic cancer, EC50 MIA PaCa-2): 6.36 | pEC50 ([3]; PANC 05.04 cell line, read-out: Pancreatic cancer, EC50 PANC 05.04): 6.18 | pEC50 ([3]; PANC-1 cell line, read-out: Pancreatic cancer, EC50 PANC-1): 5.94 | pEC50 ([3]; UPAFII cell line, read-out: Pancreatic cancer, EC50 UPAFII): 6.55 | EC50 ([4]; DND41, DND-41 cell line, read-out: Haematopoietic & Lymphoid tumors, EC50 (μM) DND-41): 0.225 µM | EC50 ([4]; MV4-11, MV-4-11 cell line, read-out: Haematopoietic & Lymphoid tumors, EC50 (μM) MV-4-11): 0.101 µM | EC50 ([4]; Rec1, REC-1 cell line, read-out: Haematopoietic & Lymphoid tumors, EC50 (μM) REC-1): 0.11 µM | EC50 ([4]; SU-DHL-4, SUDHL4 cell line, read-out: Haematopoietic & Lymphoid tumors, EC50 (μM) SUDHL4): 0.498 µM | EC50 ([4]; HL-60 cell line, read-out: Haematopoietic & Lymphoid tumors, EC50 (μM) HL-60): 0.522 µM | EC50 ([4]; JM1 cell line, read-out: Haematopoietic & Lymphoid tumors, EC50 (μM) JM1): 0.122 µM | EC50 ([4]; JURKAT, Clone E6-1 cell line, read-out: Haematopoietic & Lymphoid tumors, EC50 (μM) JURKAT, Clone E6-1): 0.5 µM | EC50 ([4]; JeKo-1 cell line, read-out: Haematopoietic & Lymphoid tumors, EC50 (μM) JeKo-1): 0.458 µM | EC50 ([4]; KASUMI-1 cell line, read-out: Haematopoietic & Lymphoid tumors, EC50 (μM) KASUMI-1): 1 µM | EC50 ([4]; Loucy cell line, read-out: Haematopoietic & Lymphoid tumors, EC50 (μM) Loucy): 0.385 µM | EC50 ([4]; MOLT-4 cell line, read-out: Haematopoietic & Lymphoid tumors, EC50 (μM) MOLT-4): 0.343 µM | EC50 ([4]; TF-1 cell line, read-out: Haematopoietic & Lymphoid tumors, EC50 (μM) TF-1): 0.35 µM | EC50 ([4]; TOLEDO cell line, read-out: Haematopoietic & Lymphoid tumors, EC50 (μM) TOLEDO): 0.132 µM | pEC50 ([5]; SNU-398, SNU398 cell line, read-out: Liver cancer, EC50 SNU398): 6.78 | pEC50 ([5]; HEPG2 cell line, read-out: Liver cancer, EC50 HEPG2): 6.43 | pEC50 ([5]; PLC/PRF/5 cell line, read-out: Liver cancer, EC50 PLC/PRF/5): 6.06 | pEC50 ([6]; DU-145, read-out: Prostate cancer EC50 Du-145): 6.13 | pEC50 ([6]; PC-3, PC3 cell line, inhibition of cancer cell proliferation, read-out: Prostate cancer EC50 PC3): 6.06 | pEC50 ([6]; 22Rv1 cell line, inhibition of cancer cell proliferation, read-out: Prostate cancer EC50 22Rv1): 6.50 | pEC50 ([6]; LNCap clone FGC cell line, inhibition of cancer cell proliferation, read-out: Prostate cancer EC50 LNCap clone FGC): 6.37 | pEC50 ([6]; VCaP (Sigma) cell line, inhibition of cancer cell proliferation, read-out: Prostate cancer EC50 VCaP (Sigma)): 5.47 | EC50 ([7]; HCT-116, HCT116 cell line, read-out: Colorectal cancer, EC50 (μM) HCT116): 0.156 µM | EC50 ([7]; HT-29, HT29 cell line, read-out: Colorectal cancer, EC50 (μM) HT29): 0.318 µM | EC50 ([7]; SW-620, SW620 cell line, read-out: Colorectal cancer, EC50 (μM) SW620): 0.125 µM | EC50 ([7]; DLD-1 cell line, read-out: Colorectal cancer, EC50 (μM) DLD-1): 0.265 µM | EC50 ([7]; SW48 cell line, read-out: Colorectal cancer, EC50 (μM) SW48): 0.131 µM | EC50 ([7]; SW480 cell line, read-out: Colorectal cancer, EC50 (μM) SW480): 0.19 µM | pEC50 (CLK2): 8.72
